Each structure is given as a SMILES string. pEC50: −log10 of the molar value.

One assay concerns the target T1, Solute carrier family 12 member 5 (Homo sapiens, UniProt Q9H2X9).
T1 sequence (Q9H2X9 whole entry): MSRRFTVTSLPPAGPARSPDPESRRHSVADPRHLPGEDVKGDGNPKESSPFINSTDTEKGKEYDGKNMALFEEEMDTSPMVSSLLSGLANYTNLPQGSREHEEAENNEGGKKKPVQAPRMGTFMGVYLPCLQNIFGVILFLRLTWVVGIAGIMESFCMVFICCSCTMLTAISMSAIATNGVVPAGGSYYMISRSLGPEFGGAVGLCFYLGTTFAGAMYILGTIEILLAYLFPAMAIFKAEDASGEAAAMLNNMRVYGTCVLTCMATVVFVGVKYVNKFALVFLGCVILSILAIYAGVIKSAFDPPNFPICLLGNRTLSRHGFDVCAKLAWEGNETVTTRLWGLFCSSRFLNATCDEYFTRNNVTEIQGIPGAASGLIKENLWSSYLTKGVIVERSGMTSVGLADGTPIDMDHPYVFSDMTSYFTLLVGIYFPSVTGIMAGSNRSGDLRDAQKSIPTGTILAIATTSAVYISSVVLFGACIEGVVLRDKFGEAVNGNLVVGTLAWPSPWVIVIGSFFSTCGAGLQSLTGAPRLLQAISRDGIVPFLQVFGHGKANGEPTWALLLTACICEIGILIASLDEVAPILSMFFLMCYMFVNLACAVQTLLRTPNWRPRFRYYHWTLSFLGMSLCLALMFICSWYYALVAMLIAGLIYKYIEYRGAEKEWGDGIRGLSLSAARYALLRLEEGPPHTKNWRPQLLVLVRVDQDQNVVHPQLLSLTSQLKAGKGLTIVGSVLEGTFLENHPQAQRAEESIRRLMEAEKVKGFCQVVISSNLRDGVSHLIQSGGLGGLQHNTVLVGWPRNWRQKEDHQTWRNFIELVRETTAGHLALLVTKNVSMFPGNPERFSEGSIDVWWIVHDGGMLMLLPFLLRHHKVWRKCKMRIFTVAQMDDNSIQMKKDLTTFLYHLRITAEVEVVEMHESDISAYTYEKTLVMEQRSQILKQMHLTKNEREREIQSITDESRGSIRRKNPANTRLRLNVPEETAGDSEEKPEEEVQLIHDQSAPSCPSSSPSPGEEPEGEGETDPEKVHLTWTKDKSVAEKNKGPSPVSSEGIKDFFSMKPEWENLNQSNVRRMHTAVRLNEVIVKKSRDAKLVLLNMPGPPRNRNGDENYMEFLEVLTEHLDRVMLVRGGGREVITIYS
In words: KCC2 modulator potency by thallium flux, dose response, cell-based, HEK293 KCC2, FluoZin-2 fluorescence (AID 1736).
Details: not given
As a reminder, the pEC50 is the EC50 on a negative log10 scale, so that one unit is a factor of ten. Lower therefore signals a large EC50. In the case of `S=C(NN=Cc1cccc2ccccc12)Nc1cccc(Cl)c1` [1-(3-chlorophenyl)-3-(1-naphthalenylmethylideneamino)thiourea], the pEC50 is 5.08. As to `O=C(OCC(=O)N1CCc2ccccc2C1)c1ccc(N2CCOCC2)c([N+](=O)[O-])c1` [4-(4-morpholinyl)-3-nitrobenzoic acid [2-(3,4-dihydro-1H-isoquinolin-2-yl)-2-oxoethyl] ester], the pEC50 is 4.94. In the case of `O=C(O)CC/C(=C\c1ccc(N2CCCC2)c([N+](=O)[O-])c1)c1nc2ccccc2s1` [(E)-4-(1,3-benzothiazol-2-yl)-5-(3-nitro-4-pyrrolidin-1-yl-phenyl)pent-4-enoic acid], the negative-log EC50 (pEC50) is 3.63.

`COc1ccc(-c2nnc(S/C(=C/c3ccc(Cl)cc3)C(=O)O)o2)cc1` [(E)-3-(4-chlorophenyl)-2-[[5-(4-methoxyphenyl)-1,3,4-oxadiazol-2-yl]sulfanyl]prop-2-enoic acid]: the pEC50 was 6.41. With `O=C(Cn1cnc2c(nnn2Cc2ccc(F)cc2)c1=O)N1CCN(c2ccccc2)CC1` [3-(4-fluorobenzyl)-6-[2-keto-2-(4-phenylpiperazino)ethyl]triazolo[4,5-d]pyrimidin-7-one], the pEC50 is 5.78.

For `COc1cccc(Nc2nnc(S)s2)c1` [5-(3-methoxyanilino)-3H-1,3,4-thiadiazole-2-thione], the pEC50 was 5.46.

Take `CC1CCN(C(=O)CSc2ccc(-c3ccc(F)cc3)nn2)CC1` [2-[6-(4-Fluoro-phenyl)-pyridazin-3-ylsulfanyl]-1-(4-methyl-piperidin-1-yl)-ethanone]: the pEC50 was 5.36. `CCCCCC(=O)Cc1cc(O)cc2c1C(=O)Oc1cc(O)c(C(=O)O)c(CCCCC)c1O2` [3,8-Dihydroxy-11-oxo-1-(2-oxo-heptyl)-6-pentyl-11H-dibenzo[b,e][1,4]dioxepine-7-carboxylic acid] gave a pEC50 of 5.09.

In the case of `O=C(CSc1nnc(CNc2ccccc2)o1)N1CCCc2ccccc21` [1-(3,4-Dihydro-2H-quinolin-1-yl)-2-(5-phenylaminomethyl-[1,3,4]oxadiazol-2-ylsulfanyl)-ethanone], the pEC50 was 2.76. Regarding `Cc1ccc(CSCCNC(=O)c2ccc(C)cc2)cc1` [4-methyl-N-[2-[(4-methylbenzyl)thio]ethyl]benzamide], the pEC50 was 4.81. In the case of `COC(=O)[C@@H](NC(=O)O[C@@H]1C(=O)c2ccc(OC)cc2O[C@H]1c1cccc(C(F)(F)F)c1)C(C)C` [(2S)-2-[[(2S,3S)-4-keto-7-methoxy-2-[3-(trifluoromethyl)phenyl]chroman-3-yl]oxycarbonylamino]-3-methyl-butyric acid methyl ester], the pEC50 was 5.73.

`Cc1ccc(Nc2nnc(SCC(=O)c3ccc(Br)s3)s2)c(C)c1` [1-(5-bromanylthiophen-2-yl)-2-[[5-[(2,4-dimethylphenyl)amino]-1,3,4-thiadiazol-2-yl]sulfanyl]ethanone] showed a pEC50 of 5.91. `CC(C)(CN=C(S)NCCc1ccccc1)CN=C(S)NCCc1ccccc1` [1-[2,2-dimethyl-3-(2-phenylethylcarbamothioylamino)propyl]-3-(2-phenylethyl)thiourea] showed a pEC50 of 4.78.

Take `S=C(NCc1cccnc1)Nc1ccc(Oc2ccccc2)cc1` [1-(4-phenoxyphenyl)-3-(3-pyridinylmethyl)thiourea]: the pEC50 is 5.92. On the same count and under the same terms, in the case of `O=C(C1CCN(c2nc3ccc(Br)cc3s2)CC1)N1CCC2(CC1)OCCO2` [8-{[1-(6-bromo-1,3-benzothiazol-2-yl)piperidin-4-yl]carbonyl}-1,4-dioxa-8-azaspiro[4.5]decane] it was 5.28. For the molecule `O=C(NCc1cccs1)c1nc2c(nnn2Cc2ccc(F)cc2)c(=O)[nH]1` [MLS000074753], the pEC50 was 1.39. `C=CCn1c(Cc2cccs2)nnc1SCC(=O)c1ccc2ccccc2c1` [1-(2-naphthalenyl)-2-[[4-prop-2-enyl-5-(thiophen-2-ylmethyl)-1,2,4-triazol-3-yl]thio]ethanone]: the pEC50 was 5.21. The molecule `CC(=O)NCC1CCCN(c2nc3nonc3nc2N(C)Cc2ccccc2)C1` (stereo unspecified) [MLS000731683] showed a pEC50 of 5.29. In turn, `Cc1cc(C)c(C#N)c(N2CCN(Cc3ccccc3)CC2)n1` [2-(4-benzyl-1-piperazinyl)-4,6-dimethylnicotinonitrile] had a negative-log EC50 (pEC50) of 5.09. Molecule `CS(=O)(=O)N(CC(=O)N1CCN(c2ccc(F)cc2)CC1)c1ccc(F)c(Cl)c1` [MLS000531433] had a pEC50 of 4.69. Same read-out and setting: in the case of `O=C(CSc1nnnn1-c1ccc(Cl)cc1)N1CCc2ccccc2C1` [2-[1-(4-chlorophenyl)tetrazol-5-yl]sulfanyl-1-(3,4-dihydro-1H-isoquinolin-2-yl)ethanone] it was 5.85; in that of `Cc1ccc(C2=CSC3=NNC4(CCCCC4)NN23)cc1` [SMR000306481], 5.65. Molecule `O=C(CSc1ccc(-c2ccccc2)nn1)c1ccccc1` [1-phenyl-2-(6-phenylpyridazin-3-yl)sulfanyl-ethanone] showed a pEC50 of 5.97. The molecule `Cc1cccc(Nc2nnc(SCC(=O)c3ccc(Br)s3)s2)c1C` [1-(5-bromanylthiophen-2-yl)-2-[[5-[(2,3-dimethylphenyl)amino]-1,3,4-thiadiazol-2-yl]sulfanyl]ethanone] gave a pEC50 of 5.37.

Regarding `Oc1c(Br)cc(Br)cc1C=NNC(=S)N[C@H]1CC2C=CC1C2` (stereo partly specified) [SMR000455893], the pEC50 was 4.90. Take `CC(=O)NC(C)C(=O)OCC(=O)c1ccc(-c2ccccc2)cc1` (stereo unspecified) [2-acetamidopropanoic acid [2-oxo-2-(4-phenylphenyl)ethyl] ester]: the pEC50 is 4.86.

In turn, `CCC(CC)NC(=O)CSc1nnc(-c2c[nH]c3ccccc23)o1` [MLS001017505] gave a pEC50 of 5.69.

The molecule `Cn1cc(C(=O)C(=O)N2CCCc3ccccc32)c2ccccc21` [1-(3,4-dihydro-2H-quinolin-1-yl)-2-(1-methyl-3-indolyl)ethane-1,2-dione] had a negative-log EC50 (pEC50) of 5.07.

For `Cc1ccc(S(=O)(=O)N(CCC(=O)O)Cc2ccc(Cl)cc2)cc1` [3-[(4-chlorobenzyl)-tosyl-amino]propionic acid], the pEC50 is 5.57. On to `Cc1ccc(S(=O)(=O)N2CCC(=O)N(C(COCc3ccccc3)Cc3ccccc3)CC2)cc1` (stereo unspecified) [1-(4-methylphenyl)sulfonyl-4-(1-phenyl-3-phenylmethoxy-propan-2-yl)-1,4-diazepan-5-one], for which the pEC50 is 5.91.

Take `O=C(Nc1ccc2oc(-c3ccccc3F)nc2c1)c1ccco1` [MLS000709180]: the pEC50 is 3.08. On the same count and under the same terms, in the case of `Cc1cccc(-c2nc(C[S+]([O-])CC(=O)N3CCc4ccccc4C3)c(C)o2)c1` (stereo unspecified) [1-(3,4-dihydro-1H-isoquinolin-2-yl)-2-[[5-methyl-2-(3-methylphenyl)-1,3-oxazol-4-yl]methylsulfinyl]ethanone] it was 4.86. The same measure, in the same setting: to `CC(=NNC(=O)c1ccc(Br)cc1)c1ccccc1` [MLS000558629] belongs 5.70.

The assay is the same for the next values; noted with them: inactive by the depositor's call.
As to `O=C(Cn1nc(-c2ccccc2F)ccc1=O)NCc1ccc2c(c1)OCO2` [2-[3-(2-fluorophenyl)-6-keto-pyridazin-1-yl]-N-piperonyl-acetamide], the pEC50 is 5.08.

`N=C1SCC(=O)N1c1ncc(Cc2cccc(Cl)c2)s1` [2-azanylidene-3-[5-[(3-chlorophenyl)methyl]-1,3-thiazol-2-yl]-1,3-thiazolidin-4-one] gave a negative logarithm of the EC50 (pEC50) of 5.50. As to `O=C(COc1ccc2ccccc2c1Br)Nn1cnnc1` [2-(1-bromanylnaphthalen-2-yl)oxy-N-(1,2,4-triazol-4-yl)ethanamide], the pEC50 was 3.34.

The values are drawn from BindingDB's records for doi:10.7270/Q2M32T6M (Vanderbilt Screening Center for GPCRs, Ion Channels and …, 2009).
